Measured values from patent US20080275134A1, “Methods for Treatment of Retinal Degenerative Disease” (University of Washington, priority 2005, published 2008).

Columns and labels:
CYP26A1 = target: T1, CYP26A1 (Homo sapiens, UniProt O43174); assay: oxidation in HEK-293 cells transfected with CYP26A1 cDNA; format: in vitro ADME
T1 construct: expressed in transfected cells; host or cells: HEK-293
T1 sequence (O43174 1-497): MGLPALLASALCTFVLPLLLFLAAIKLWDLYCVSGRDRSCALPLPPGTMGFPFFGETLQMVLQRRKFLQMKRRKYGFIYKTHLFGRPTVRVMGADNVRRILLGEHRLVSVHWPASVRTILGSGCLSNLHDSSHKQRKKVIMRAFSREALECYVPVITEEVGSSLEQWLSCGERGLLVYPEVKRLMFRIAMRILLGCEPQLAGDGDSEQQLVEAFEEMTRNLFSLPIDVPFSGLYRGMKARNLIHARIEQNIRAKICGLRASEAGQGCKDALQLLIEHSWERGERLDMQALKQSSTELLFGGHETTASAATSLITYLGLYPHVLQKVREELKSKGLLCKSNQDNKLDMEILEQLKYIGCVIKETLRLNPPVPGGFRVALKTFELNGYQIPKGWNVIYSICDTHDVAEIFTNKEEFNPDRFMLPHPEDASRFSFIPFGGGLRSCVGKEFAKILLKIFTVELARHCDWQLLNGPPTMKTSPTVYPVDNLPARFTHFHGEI
Description: Next, the RA oxidation pathway was investigated. […] In addition to secretion, Ret-NH2 might be degraded first by deamination to all-trans-retinol/retinal, which was seen to increase in Ret-NH2 treated cells. […] These observations explain the long-lasting effect of RetNH2, as the amide is stored and hydrolyzed back to the free amine.

retinol dehydrogenases = assay: direct assay of retinol dehydrogenases present in the RPE; format: biochemical; conditions: direct assays
RXR = target: T2, RXR (Mus musculus, UniProt P28700); assay: HEK-293 cells with DR1-lacZ reporter and mouse RXRA, β-galactosidase activity; format: cell-based; conditions: 48 hours treatment, micromolar concentrations
T2 construct: The RXR-A ORF was then subcloned into pcDNA3.1 Directional TOPO vector; expressed in transfected cells; host or cells: HEK-293, transient transfection with pcDNA3.1 Directional TOPO
T2 sequence (P28700 1-467): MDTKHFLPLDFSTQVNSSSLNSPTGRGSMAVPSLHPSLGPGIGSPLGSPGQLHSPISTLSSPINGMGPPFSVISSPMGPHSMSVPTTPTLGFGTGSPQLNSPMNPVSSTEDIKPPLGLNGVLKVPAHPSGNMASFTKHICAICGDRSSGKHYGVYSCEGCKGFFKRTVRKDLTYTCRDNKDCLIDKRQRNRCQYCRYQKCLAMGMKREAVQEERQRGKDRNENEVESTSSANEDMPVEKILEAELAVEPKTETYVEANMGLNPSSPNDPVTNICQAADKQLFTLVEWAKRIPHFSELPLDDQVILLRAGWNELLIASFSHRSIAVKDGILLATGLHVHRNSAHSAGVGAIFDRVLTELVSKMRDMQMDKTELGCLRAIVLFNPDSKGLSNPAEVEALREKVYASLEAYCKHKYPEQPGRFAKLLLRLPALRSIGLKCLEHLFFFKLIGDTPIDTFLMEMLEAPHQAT

RAR = assay: F9-RARE-lacZ reporter cell line, β-galactosidase activity (DR5 elements); format: cell-based; conditions: 24 hours treatment, micromolar concentrations
Description: 13-cis-RA can isomerize to all-trans-RA and then to 9-cis-RA, both of which are potent ligands of the RA receptor (RAR). 9-cis-RA also binds and activates the retinoid X receptor (RXR). This contributes to the toxicity of the RAR and RXR ligands. It was investigated whether Ret-NH2 can activate these nuclear receptor using reporter-cells as described previously (20). A β-galactosidase activity assay was employed to examine if all-trans-RA, 9-cis-RA, and Ret-NH2 are agonists for these nuclear receptors.
F9-RARE-lacZ cells express endogenous RAR and RXR and were transfected with a construct of lacZ under the control of a minimal promoter and upstream DR5 elements (1). F9-RARE-lacZ cells were treated with different doses of all-trans-RA or Ret-NH2 for 24 hours after which the cells were harvested and the β-galactosidase activity was measured using the soluble substrate o-nitrophenyl β-D-galactopyranoside. The colorless substrate was cleaved by β-galactosidase to yellow colored o-nitrophenol, whose absorbance was measured at 420 nm using a spectrophotometer. The experiment was repeated twice with similar results. The RARE reporter cell line F9-RARE-lacZ (SIL15-RA) was a kind gift from Dr. Michael Wagner (SUNY Downstate Medical Center) and Dr. Peter McCaffery (University of Massachusetts Medical School). […]

Structure (SMILES)	oxidation by CYP26A1 (CYP26A1)	inhibition of retinol dehydrogenases (retinol dehydrogenases)	activation of transcription through RXR (DR1 elements) (RXR)	activation of transcription through RAR (DR5 RARE) (RAR)
CC1=C(/C=C/C(C)=C/C=C/C(C)=C/CN)C(C)(C)CCC1 [Ret-NH2, Retinylamine]	no evidence of the presence of hydroxy- or oxo-Ret-NH2	did not inhibited		
CC1=C(/C=C/C(C)=C/C=C/C(C)=C/CN)C(C)(C)CCC1 [all-trans-Ret-NH2, all-trans-retinylamine]			does not activate protein transcription	does not activate protein transcription
